US7776907B2, “Methods for the treatment and management of macular degeneration using cyclopropyl-N-{2-[(1S)-1-(3-ethoxy-4-methoxyphenyl)-2-(methylsulfonyl)ethyl]-3-oxoisoindoline-4-yl}carboxamide” (Celgene Corporation, priority 2002, dated 2010)

Legend:
[1] = system: patients with macular degeneration; assay: Clinical study in patients with macular degeneration, adjuvant to photodynamic therapy with verteporfin; type: in vivo, human; conditions: about 20 mg/day as adjuvant to verteporfin photodynamic therapy for 20 weeks
Procedure: Selective cytokine inhibitory drugs of the invention are administered in an amount of about 20 to about 1,200 mg per day to patients with macular degeneration. In a specific embodiment, clinical studies are performed with forty patients with macular degeneration, who are divided into two groups. The first group receives conventional treatment for closing the leaking choroidal vessels (characteristic of this disease) by photodynamic therapy with verteporfin. Ophthalmol 1999 (117): 1329-1345. The second group receives the same conventional therapy with verteporfin and (+)-2-[1-(3-ethoxy-4 methoxy-phenyl)-2-methylsulfonylethyl]-4 acetylaminoisoindoline 1,3-dione in an amount of about 20 mg/day as an adjuvant for 20 weeks.
However, the first group without (+)-2-[1-(3-ethoxy-4 methoxyphenyl)-2-methylsulfonylethyl]-4 acetylaminoisoindoline 1,3-dione experiences progressive reperfusion of the ablated vessels several weeks after treatment. Progressive visual loss follows which requires the photodynamic therapy to be repeated.

[2] = system: TNF-α production; assay: In vitro pharmacology studies: inhibition of TNF-α production following LPS-stimulation of human PBMC and human whole blood; type: cell-based; conditions: compared with thalidomide
Text: One of the biological effects typically exerted by selective cytokine inhibitory drugs is the reduction of synthesis of TNF-α. Specific selective cytokine inhibitory drugs enhance the degradation of TNF-α mRNA. TNF-α may play a pathological role in macular degeneration.
In a specific embodiment, the pharmacological properties of 3-(3,4-dimethoxy-phenyl)-3-(1-oxo-1,3-dihydro-isoindol-2-yl)-propionamide are characterized in in vitro studies. Studies examine the effects of the compound on the production of various cytokines. Inhibition of TNF-α production following LPS-stimulation of human PBMC and human whole blood by the compound is investigated in vitro. […] The pharmacological effects of 3-(3,4-dimethoxy-phenyl)-3-(1-oxo-1,3-dihydro-isoindol-2-yl)-propionamide may derive from its action as an inhibitor of the generation of inflammatory cytokines.

[3] = system: laser-induced CNVM; conditions: intravitreal injection, monkeys; cited from earlier work
[4] = system: patients with MD; conditions: intravitreal injection, one-year period, randomized trial; cited from earlier work
[5] = system: MD; conditions: cited from earlier work
[6] = animal models; cited from earlier work

Molecule: CCOc1cc(C(CS(C)(=O)=O)N2C(=O)c3cccc(NC(C)=O)c3C2=O)ccc1OC (single isomer, unassigned; (+)) [(+)-2-[1-(3-ethoxy-4 methoxyphenyl)-2-methylsulfonylethyl]-4 acetylaminoisoindoline 1,3-dione]
- effect on neovascular cascade / duration of effects of photodynamic therapy [1]: neovascular cascade is sufficiently hindered

Molecule: COc1ccc(C(CC(N)=O)N2Cc3ccccc3C2=O)cc1OC (stereo not shown) [3-(3,4-Dimethoxy-phenyl)-3-(1-oxo-1,3-dihydro-isoindol-2-yl)-propionamide]
- pharmacological activity profile, potency relative to thalidomide [2]: five to fifty times more potent than thalidomide

Molecule: C[C@]12C=CC(=O)C=C1CC[C@H]1[C@@H]3C[C@@H](O)[C@](O)(C(=O)CO)[C@@]3(C)C[C@H](O)[C@@]12F [triamcinolone]
- growth of laser-induced CNVM [3]: inhibits the growth of laser-induced CNVM
- prevention of severe visual loss [4]: fails to prevent severe visual loss

Molecule: interferon-α
- efficacy at treating MD ([5]; clinical trial, Arch. Ophthalmol. 115:865-72 (1997)): ineffective at treating MD
- adverse effects ([5]; human, in vivo): high rate of adverse effects

Molecule: verteporfin
- accumulation in tissue [6]: also accumulates in the retina
